From patent US20110212100A1, “METHODS FOR MODULATING DEVELOPMENT AND EXPANSION OF IL-17 EXPRESSING CELLS” (priority 2007, published 2011)

System: amino acid response (AAR) pathway: eIF2α, ATF4
Assay: eIF2α phosphorylation and ATF4 protein levels in T cells (immunoblot)
Type: cell-based, mouse
Procedure: Whole cell lysates were prepared 4 hours-post TCR activation and immunoblotting was performed with the indicated antibodies. ATF4 protein is indicated by arrowhead. NS-non-specific band.
FIG. 12E is an illustration depicting immunoblot analysis of purified CD4^+ CD25^− T cells activated through the TCR for the indicated times without exogenous cytokines in the presence of either 10 nM MAZ1310 or 10 nM HF as indicated. Whole cells lysates were prepared during the timecourse and immunoblotting was performed.
Western blotting: Whole cell lysates were generated from T cells activated for the indicated times. For STAT3 and Smad2/3 western blots cells were harvested, washed in PBS and lysed in 50 mM Tris, pH 7.4, 0.1% SDS, 1% Triton-X100, 140 mM NaCl, 1 mM EDTA, 1 mM EGTA supplemented with protease inhibitors tablets (Roche-Germany), 1 mM NaF and 1 mM Na3VO4. For eIF2α and ATF4 western blots, cells were harvested as above and lysed in 50 mM Tris, pH 7.4, 2% SDS, 20% glycerol and 2 mM EDTA supplemented with protease and phosphatase inhibitors as above. All lysates were cleared via centrifugation and 15-30 μg of protein was resolved by SDS-PAGE. Protein was transferred to nitrocellulose membranes, blocked and blotted using specific antibodies. Antibodies used for western blot analysis were anti-phospho-Smad2, anti-STAT3 (pY705), anti-STAT3, anti-eIF2α^pS51, anti-eIF2α, anti-GCN2^pT898, anti-GCN2 (all from cell signaling technology, Danvers, Mass.). Anti-ATF4/CREB2 and anti-β-actin were purchased from Santa Cruz biotechnology (Santa Cruz, Calif.). HRP-conjugated secondary antibodies were all purchased from Sigma, with the exception of HRP-conjugated anti-armenian hamster antibody (Jackson Immunoresearch—West Grove, Pa.).
To address directly whether HF activates the AAR pathway, eIF2a phosphorylation and ATF4 protein levels in HF-treated T cells were examined. HF induced detectable eIF2α phosphorylation at 2.5 nM, and this effect plateaued at 5-10 nM HF (FIG. 12D). […] AAR activation was a general consequence of HF treatment: HF induced eIF2α phosphorylation not only in T cells activated in Th17-priming conditions, but also in resting naïve T cells and T cells activated in ThN, Th1, Th2 and iTreg polarizing conditions (FIG. 12F). […] (Rathmell, J. C., Elstrom, R. L., Cinalli, R. M. & Thompson, C. B. Activated Akt promotes increased resting T cell size, CD28-independent T cell growth, and development of autoimmunity and lymphoma. Eur J Immunol 33, 2223-32 (2003)). Thus, the rapid activation of the AAR pathway by HF underlies both its selective inhibition of Th17 differentiation and its effects on fibroblasts. (Pines, M. & Nagler, A. Halofuginone: a novel antifibrotic therapy. Gen Pharmacol 30, 445-50 (1998)).

## O=C(CC1NCCCC1O)Cn1cnc2cc(Br)c(Cl)cc2c1=O (racemic) [HF, 7-bromo-6-chloro-3-[3-(3-hydroxy-2-piperidinyl)-2-oxopropyl]-4(3H)-quinazolinone]
10 nM HF
  time at which eIF2α phosphorylation reached maximum levels: ≤ 2 h
  time until which ATF4 protein continued to accumulate: 4 h
4 hours post TCR activation
  concentration at which eIF2α phosphorylation plateaued: 5 to 10 nM
  concentration giving highest ATF4 expression levels: 5 to 10 nM
  concentration inducing detectable eIF2α phosphorylation: 2.5 nM
  higher concentrations at which ATF4 expression levels were reduced: 20 to 40 nM
